Data: US20120029187A1, “HALOALKYLSULFONANILIDE DERIVATIVE” (Nissan Chemical Industries, Ltd., priority 2009, published 2012)

Tests used:
Format in all cases: in vivo
large crabgrass [1] = assay: Test Example 4: herbicidal effect in foliage treatment; conditions: dose 3.2 g/a
Outline: (§1)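 Post-emergence foliar spray of water-diluted emulsifiable concentrate at predetermined doses (g per are), applied to plants 14 days after sowing in sterile diluvial soil (greenhouse, 25 to 30° C). Visual scale rating of effect taken 3 weeks later.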

giant foxtail [2] = assay: as above; conditions: dose 3.2 g/a
Outline: as §1

barnyardgrass [3] = assay: as above; conditions: dose 3.2 g/a
Outline: as §1

water foxtail [4] = assay: as above; conditions: dose 3.2 g/a
Outline: as §1

redroot pigweed [5] = assay: as above; conditions: dose 3.2 g/a
Outline: as §1

common chickweed [6] = assay: as above; conditions: dose 3.2 g/a
Outline: as §1

wild oat [7] = assay: as above; conditions: dose 3.2 g/a
Outline: as §1

Italian ryegrass [8] = assay: as above; conditions: dose 3.2 g/a
Outline: as §1

posumbu knotweed [9] = assay: as above; conditions: dose 3.2 g/a
Outline: as §1

velvetleaf [10] = assay: as above; conditions: dose 3.2 g/a
Outline: as §1

beadstraw = assay: as above; conditions: dose 3.2 g/a
Outline: as §1

common ragweed [11] = assay: as above; conditions: dose 3.2 g/a
Outline: as §1

common lambsquater [12] = assay: as above; conditions: dose 3.2 g/a
Outline: as §1

transplanted rice = assay: Test Example 1: preemergence treatment under submerged conditions, effect on crop; conditions: dose 2.52 g/a
Outline: (§2)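 Alluvial soil flooded to 4 cm depth; barnyardgrass, bulrush and ducksalad sown and 2.5-leaf rice seedlings transplanted. Same day, water-diluted emulsifiable concentrates applied to the water surface at set doses (g/a). Kept at 25–30 °C in greenhouse; effects scored 0–5 by mortality after three weeks.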

barnyardgrass [13] = assay: Test Example 1: herbicidal effects in preemergence treatment under submerged conditions; conditions: dose 2.52 g/a
Outline: as §2

ducksalad [14] = assay: as above; conditions: dose 2.52 g/a
Outline: as §2

bulrush [15] = assay: as above; conditions: dose 2.52 g/a
Outline: as §2

barnyardgrass [16] = assay: Test Example 2: herbicidal effects during the vegetation period under submerged conditions; conditions: treatment during the vegetation period under submerged conditions; dose 2.52 g/a
Outline: (§3)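 Barnyardgrass, bulrush and ducksalad were co-sown in alluvial soil flooded to 4 cm and grown in a greenhouse at 25 to 30° C. At the 1- or 2-leaf stage, water-diluted emulsifiable concentrates went onto the water surface at set doses (g/a). Herbicidal effect was scored three weeks later on a graded scale.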

ducksalad [17] = assay: as above; conditions: treatment during the vegetation period under submerged conditions; dose 2.52 g/a
Outline: as §3

bulrush [18] = assay: as above; conditions: treatment during the vegetation period under submerged conditions; dose 2.52 g/a
Outline: as §3

large crabgrass [19] = assay: Test Example 3: herbicidal effects in soil treatment; conditions: dose 3.2 g/a
Outline: (§4)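 Seeds were sown in sterilized diluvial soil and covered with about 1.5 cm of soil. Compounds, formulated as emulsifiable concentrates and diluted with water, were sprayed evenly over the soil surface at set doses in g/a. Herbicidal effect was scored on a rating scale three weeks later.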

giant foxtail [20] = assay: as above; conditions: dose 3.2 g/a
Outline: as §4

barnyardgrass [21] = assay: as above; conditions: dose 3.2 g/a
Outline: as §4

water foxtail [22] = assay: as above; conditions: dose 3.2 g/a
Outline: as §4

redroot pigweed [23] = assay: as above; conditions: dose 3.2 g/a
Outline: as §4

common chickweed [24] = assay: as above; conditions: dose 3.2 g/a
Outline: as §4

wild oat [25] = assay: as above; conditions: dose 3.2 g/a
Outline: as §4

Italian ryegrass [26] = assay: as above; conditions: dose 3.2 g/a
Outline: as §4

posumbu knotweed [27] = assay: as above; conditions: dose 3.2 g/a
Outline: as §4

velvetleaf [28] = assay: as above; conditions: dose 3.2 g/a
Outline: as §4

common ragweed [29] = assay: as above; conditions: dose 3.2 g/a
Outline: as §4

common lambsquater [30] = assay: as above; conditions: dose 3.2 g/a
Outline: as §4

[31] = three weeks after the application

CCCOC(=O)N(c1ccccc1CN1COC(c2ccccc2)CC1=O)S(=O)(=O)C(F)(F)F (stereo not shown) [II-11]
D: large crabgrass, herbicidal effect (large crabgrass [1]; three weeks after application): 2 (mortality of at least 20% and less than 40%) | E: giant foxtail, herbicidal effect (giant foxtail [2]; three weeks after application): 2 (mortality of at least 20% and less than 40%) | A: barnyardgrass, herbicidal effect (barnyardgrass [3]; three weeks after application): 4 (mortality of at least 70% and less than 90%) | G: water foxtail, herbicidal effect (water foxtail [4]; three weeks after application): 3 (mortality of at least 40% and less than 70%) | K: redroot pigweed, herbicidal effect (redroot pigweed [5]; three weeks after application): 0 (mortality of less than 5% (almost ineffective)) | N: common chickweed, herbicidal effect (common chickweed [6]; three weeks after application): 4 (mortality of at least 70% and less than 90%) | F: wild oat, herbicidal effect (wild oat [7]; three weeks after application): 0 (mortality of less than 5% (almost ineffective)) | H: Italian ryegrass, herbicidal effect (Italian ryegrass [8]; three weeks after application): 1 (mortality of at least 5% and less than 20%) | M: posumbu knotweed, herbicidal effect (posumbu knotweed [9]; three weeks after application): 3 (mortality of at least 40% and less than 70%) | I: velvetleaf, herbicidal effect (velvetleaf [10]; three weeks after application): 4 (mortality of at least 70% and less than 90%) | O: beadstraw, herbicidal effect (beadstraw; three weeks after application): 4 (mortality of at least 70% and less than 90%) | J: common ragweed, herbicidal effect (common ragweed [11]; three weeks after application): 4 (mortality of at least 70% and less than 90%) | L: common lambsquater, herbicidal effect (common lambsquater [12]; three weeks after application): 2 (mortality of at least 20% and less than 40%) | a: transplanted rice, effect on crop (evaluation scale 0-5) (transplanted rice): 0 (mortality of less than 5% (almost ineffective)) | A: barnyardgrass, herbicidal effect (evaluation scale 0-5) (barnyardgrass [13]): 5 (mortality of 90% or above (nearly complete death)) | C: ducksalad, herbicidal effect (evaluation scale 0-5) (ducksalad [14]): 5 (mortality of 90% or above (nearly complete death)) | B: bulrush, herbicidal effect (evaluation scale 0-5) (bulrush [15]): 5 (mortality of 90% or above (nearly complete death)) | A: barnyardgrass, herbicidal effect (evaluation scale 0-5) (barnyardgrass [16]): 5 (mortality of 90% or above (nearly complete death)) | C: ducksalad, herbicidal effect (evaluation scale 0-5) (ducksalad [17]): 5 (mortality of 90% or above (nearly complete death)) | B: bulrush, herbicidal effect (evaluation scale 0-5) (bulrush [18]): 5 (mortality of 90% or above (nearly complete death)) | D: large crabgrass, herbicidal effect (evaluation scale 0-5) (large crabgrass [19]): 3 (mortality of at least 40% and less than 70%) | E: giant foxtail, herbicidal effect (evaluation scale 0-5) (giant foxtail [20]): 4 (mortality of at least 70% and less than 90%) | A: barnyardgrass, herbicidal effect (evaluation scale 0-5) (barnyardgrass [21]): 3 (mortality of at least 40% and less than 70%) | G: water foxtail, herbicidal effect (evaluation scale 0-5) (water foxtail [22]): 4 (mortality of at least 70% and less than 90%) | K: redroot pigweed, herbicidal effect (evaluation scale 0-5) (redroot pigweed [23]): 0 (mortality of less than 5% (almost ineffective)) | N: common chickweed, herbicidal effect (evaluation scale 0-5) (common chickweed [24]): 3 (mortality of at least 40% and less than 70%) | F: wild oat, herbicidal effect (evaluation scale 0-5) (wild oat [25]): 0 (mortality of less than 5% (almost ineffective)) | H: Italian ryegrass, herbicidal effect (evaluation scale 0-5) (Italian ryegrass [26]): 3 (mortality of at least 40% and less than 70%) | M: posumbu knotweed, herbicidal effect (evaluation scale 0-5) (posumbu knotweed [27]): 0 (mortality of less than 5% (almost ineffective)) | I: velvetleaf, herbicidal effect (evaluation scale 0-5) (velvetleaf [28]): 5 (mortality of 90% or above (nearly complete death)) | J: common ragweed, herbicidal effect (evaluation scale 0-5) (common ragweed [29]): 2 (mortality of at least 20% and less than 40%) | L: common lambsquater, herbicidal effect (evaluation scale 0-5) (common lambsquater [30]): 0 (mortality of less than 5% (almost ineffective))

O=C1CCCON1Cc1ccccc1N(C(=O)OCCCl)S(=O)(=O)C(F)(F)F [III-14]
D: large crabgrass, herbicidal effect (large crabgrass [1]; [31]): 5 (mortality of 90% or above (nearly complete death)) | E: giant foxtail, herbicidal effect (giant foxtail [2]; [31]): 5 (mortality of 90% or above (nearly complete death)) | A: barnyardgrass, herbicidal effect (barnyardgrass [3]; [31]): 5 (mortality of 90% or above (nearly complete death)) | G: water foxtail, herbicidal effect (water foxtail [4]; [31]): 5 (mortality of 90% or above (nearly complete death)) | K: redroot pigweed, herbicidal effect (redroot pigweed [5]; [31]): 3 (mortality of at least 40% and less than 70%) | N: common chickweed, herbicidal effect (common chickweed [6]; [31]): 4 (mortality of at least 70% and less than 90%) | F: wild oat, herbicidal effect (wild oat [7]; [31]): 0 (mortality of less than 5% (almost ineffective)) | H: Italian ryegrass, herbicidal effect (Italian ryegrass [8]; [31]): 4 (mortality of at least 70% and less than 90%) | M: posumbu knotweed, herbicidal effect (posumbu knotweed [9]; [31]): 0 (mortality of less than 5% (almost ineffective)) | I: velvetleaf, herbicidal effect (velvetleaf [10]; [31]): 5 (mortality of 90% or above (nearly complete death)) | O: beadstraw, herbicidal effect (beadstraw; [31]): 5 (mortality of 90% or above (nearly complete death)) | J: common ragweed, herbicidal effect (common ragweed [11]; [31]): 4 (mortality of at least 70% and less than 90%) | L: common lambsquater, herbicidal effect (common lambsquater [12]; [31]): 0 (mortality of less than 5% (almost ineffective)) | a: transplanted rice, effect on crop (evaluation scale 0-5) (transplanted rice): 3 (mortality of at least 40% and less than 70%) | A: barnyardgrass, herbicidal effect (evaluation scale 0-5) (barnyardgrass [13]): 5 (mortality of 90% or above (nearly complete death)) | C: ducksalad, herbicidal effect (evaluation scale 0-5) (ducksalad [14]): 5 (mortality of 90% or above (nearly complete death)) | B: bulrush, herbicidal effect (evaluation scale 0-5) (bulrush [15]): 5 (mortality of 90% or above (nearly complete death)) | A: barnyardgrass, herbicidal effect (evaluation scale 0-5) (barnyardgrass [16]): 5 (mortality of 90% or above (nearly complete death)) | C: ducksalad, herbicidal effect (evaluation scale 0-5) (ducksalad [17]): 5 (mortality of 90% or above (nearly complete death)) | B: bulrush, herbicidal effect (evaluation scale 0-5) (bulrush [18]): 5 (mortality of 90% or above (nearly complete death)) | herbicidal effect, D: large crabgrass (large crabgrass [19]): 5 (mortality of 90% or above (nearly complete death)) | herbicidal effect, E: giant foxtail (giant foxtail [20]): 5 (mortality of 90% or above (nearly complete death)) | herbicidal effect, A: barnyardgrass (barnyardgrass [21]): 5 (mortality of 90% or above (nearly complete death)) | herbicidal effect, G: water foxtail (water foxtail [22]): 5 (mortality of 90% or above (nearly complete death)) | herbicidal effect, K: redroot pigweed (redroot pigweed [23]): 1 (mortality of at least 5% and less than 20%) | herbicidal effect, N: common chickweed (common chickweed [24]): 5 (mortality of 90% or above (nearly complete death)) | herbicidal effect, F: wild oat (wild oat [25]): 0 (mortality of less than 5% (almost ineffective)) | herbicidal effect, H: Italian ryegrass (Italian ryegrass [26]): 3 (mortality of at least 40% and less than 70%) | herbicidal effect, M: posumbu knotweed (posumbu knotweed [27]): 3 (mortality of at least 40% and less than 70%) | herbicidal effect, I: velvetleaf (velvetleaf [28]): 5 (mortality of 90% or above (nearly complete death)) | herbicidal effect, J: common ragweed (common ragweed [29]): 5 (mortality of 90% or above (nearly complete death)) | herbicidal effect, L: common lambsquater (common lambsquater [30]): 0 (mortality of less than 5% (almost ineffective))
